In patent US10576049B1, “Composition for improving function of aortic endothelial cell and use thereof” (XI'AN JIAOTONG UNIVERSITY, priority 2018, dated 2020):

How the values were obtained:
Assay type in all cases: cell-based
[1] = test system: interleukin-6 (IL-6) mRNA in human aortic endothelial cells (HAEC); experiment: IL-6 mRNA level detection (RT-PCR) in palmitic acid-induced inflammation of human aortic endothelial cells; conditions: 500 μM palmitic acid 24 h, versus control group, HAEC (FIG. 1)
Method: (§2) In each of the three experiment groups, the cells were respectively cultured at an atmosphere of 95% air and 5% CO2 at 37° C. in wells of a 12-well cell culture plate for the following mRNA level detection, and in wells of a 6-well cell culture plate for the following protein detection. After the cell density of the three experiment groups were all cultured to 40% to 50%, the composition was added to the cells of group III. The composition was comprised of the acetic acid, lactic acid, polyoxyethylene castor oil (EL-12), and disodium alkyl polyoxyethylene sulfosuccinate (A-102) in the mass ratio of 1:2.2:1.8:1.5. Different concentrations of the composition were obtained by diluting the composition by adding a solvent having a volume of 20, 100, or 1000 times of the composition. […]
(§3) The detecting of mRNA levels corresponding to interleukin-6 and matrix metalloproteinase-1 was carried out by using reverse transcription RNA and real-time quantitative polymerase chain reaction (PCR), and the specific method is as follows:
(§4) The medium for cell culture in the wells was removed. […] The concentration of the solution was measured by an ultraviolet spectrophotometer. […]

[2] = test system: matrix metalloproteinase-1 (MMP-1) mRNA in human aortic endothelial cells (HAEC); experiment: MMP-1 mRNA level detection (RT-PCR) in palmitic acid-induced inflammation of human aortic endothelial cells; conditions: 500 μM palmitic acid 24 h, versus control group, HAEC (FIG. 1)
Method: as §2, §3, §4

[3] = test system: mitochondrial complex I in human aortic endothelial cells; experiment: Western blot of mitochondrial complex I expression in palmitic acid-treated human aortic endothelial cells; conditions: 500 μM palmitic acid 24 h alone, versus control, HAEC, Western blot (FIG. 2A, 2B)
Method: (§1) Human aortic endothelial cells (HAEC) were purchased from Shanghai Baili Biotechnology Co., Ltd. Palmitic acid was purchased from SIGMA Company. The cells were cultured in a constant-temperature, humidified, sterile incubator. The experiments were performed in three experiment groups: I. control; II. 500 μM palmitic acid treatment; and III. composition protecting. In each of the three experiment groups, the cells were respectively cultured at an atmosphere of 95% air and 5% CO2 at 37° C. in wells of a 12-well cell culture plate for the following mRNA level detection, and in wells of a 6-well cell culture plate for the following protein detection. After the cell density of the three experiment groups were all cultured to 40% to 50%, the composition was added to the cells of group III. […] The supernatants were collected, and the proteins therein were quantified by bicinchoninic acid (BCA) assay, and normalized. […] Target proteins were detected by chemiluminescence. Referring to FIG. 1 to FIG. 3, the data obtained in the above-described experiments, for the amount of the mRNA and the proteins, were expressed in the diagrams in form of mean±SEM (SEM is standard error of mean), and the data were analyzed by using One-way ANOVA analysis method with statistical significance p values of * meaning p<0.05, ** meaning p<0.01, *** meaning p<0.001. […]

[4] = test system: mitochondrial complex III in human aortic endothelial cells; experiment: Western blot of mitochondrial complex III expression in palmitic acid-treated human aortic endothelial cells; conditions: 500 μM palmitic acid 24 h alone, versus control, HAEC, Western blot (FIG. 2A, 2B)
Method: as §1

[5] = test system: FoxO1 protein in human aortic endothelial cells; experiment: Western blot of FoxO1 protein expression in palmitic acid-treated human aortic endothelial cells; conditions: 500 μM palmitic acid 24 h alone, versus control, HAEC
Method: as §1

SMILES: CCCCCCCCCCCCCCCC(=O)O [palmitic acid]
- increase of mRNA level corresponding to IL-6 [1]: about 12 times
- increase of mRNA level corresponding to MMP-1 [2]: about 5 times
- expression of mitochondrial complex I [3]: reducing
- expression of mitochondrial complex III [4]: reducing
- expression of FoxO1 [5]: reducing
